Assay results taken from a compilation of properties of binary mixtures (doi:10.1016/j.jct.2022.106952).

Test: xn = mol fraction of the nth substance listed
Settings: 101.3 kPa

CCCCCCCCN1CCCC1=O + CCCC[n+]1ccn(C)c1.F[P-](F)(F)(F)(F)F
speed of sound [m/s]
Settings | 303.15 K | 308.15 K | 313.15 K | 318.15 K | 323.15 K
x2 = 0 | 1433.6 | 1416.3 | 1399.1 | 1382.1 | 1365.2
x2 = 0.0531 | 1430 | 1413.2 | 1396.4 | 1379.8 | 1363.3
x2 = 0.1034 | 1425.4 | 1408.9 | 1392.5 | 1376.3 | 1360.2
x2 = 0.1513 | 1421.4 | 1405.2 | 1389.2 | 1373.3 | –
x2 = 0.2034 | 1417.6 | 1401.8 | 1386.2 | 1370.7 | 1355.3
x2 = 0.3009 | 1412.1 | – | 1382 | 1367.1 | 1352.4
x2 = 0.405 | – | 1393.9 | 1379.6 | 1365.4 | 1351.4
x2 = 0.5042 | – | 1393.1 | 1379.4 | 1365.8 | 1352.3
x2 = 0.5996 | 1407.7 | – | – | 1367.9 | –
x2 = 0.6991 | 1410.4 | 1397.4 | 1384.6 | 1372.1 | 1359.6
x2 = 0.8029 | 1415.4 | 1402.9 | 1390.6 | – | 1366.5
x2 = 0.8451 | – | 1405.7 | – | 1381.7 | 1369.9
x2 = 0.8927 | 1421.5 | 1409.4 | 1397.5 | – | 1374.2
x2 = 0.9513 | 1426.6 | 1414.7 | 1403 | 1391.4 | 1380.1

CCCC[n+]1ccn(C)c1.F[P-](F)(F)(F)(F)F + CCCCCCCCN1CCCC1=O
x1 = 1
Settings | speed of sound [m/s]
308.15 K | 1419.8
313.15 K | 1408.2
318.15 K | 1396.8
323.15 K | 1385.6
